In patent US6548241B1, “Storage solution containing photosensitizer for inactivation of biological contaminants” (Gambro, Inc., priority 2000, dated 2003):
Converted amounts (≈) assume the structure as drawn. Like-named read-outs stand apart in the source and are kept apart here.

How the values were obtained:
[1] = system: Staphylococcus aureus; experiment: Log inactivation of S. aureus in platelet concentrate, irradiation at 80 J/cm^2
[2] = system: Staphylococcus epidermidis; experiment: Log inactivation of S. epidermidis in platelet concentrate, irradiation at 80 J/cm^2
[3] = assay type: physicochemical; conditions: for solubility thermodynamic at 1 h: thermodynamic from solid
Procedure: The mixture was agitated at room temperature for one hour and vortex mixed to ensure complete dissolution of the suspended material. […] This suspension was then centrifuged to remove undissolved material. The supernatant from this preparation was removed and analyzed using a spectrophotometer. The absorbance values of the solution were determined at 447 nm and 373 nm. From the extinction coefficients that were determined previously, it was possible to estimate the concentration of the saturated solution Solubility in ACD-A Anticoagulant The same procedure described above was repeated using ACD-A Anticoagulant.

[4] = system: herpes simplex virus type II (HSV-II); experiment: Inactivation of HSV-II in platelet concentrates at varying photosensitizer concentrations; conditions: platelet concentrate, 80 J/cm^2, all three trials
[5] = Photodecomposition in ACD-A upon exposure to UV light (365 nm); conditions: for % of Initial, 373 nm / % of Initial, 447 nm: 63 μg/mL in ACD-A, UV 365 nm
[6] = system: HSV-II; experiment: Inactivation of HSV-II in platelet concentrate and PC:media with ascorbate (log virus titre); conditions: 14 μM + 6 mM ascorbate
[7] = system: Listeria monocytogenes; experiment: Log inactivation of Listeria monocytogenes in platelet concentrate, cuvette apparatus; assay type: cell-based
Procedure: Mixtures of platelet concentrates and platelet additive solutions are referred to herein as in “media.” Platelet concentrate without additive solution is referred to herein as in “plasma.” Both were spiked with Listeria monocytogenes. Vitamin K5 was then added to each in the amount of 300 μg/mL […]. Each was then exposed to UV, visible or room light in the cuvette apparatus of FIG. 5 with the results shown in Table 3.

Structure (SMILES): Cc1cc2nc3[nH]c(=O)[nH]c(=O)c3nc2cc1C [7-8-dimethyl alloxazine]
- Log Inactivation (cfu/mL) ([1]; 7 μM in platelet concentrate): 1.6 Logs
- Log Inactivation (cfu/mL) ([2]; 7 μM in platelet concentrate): 2.9 Logs

Structure (SMILES): Cc1cc2nc3c(=O)[nH]c(=O)nc-3n(C[C@H](O)[C@H](O)[C@H](O)CO)c2cc1C [7,8-dimethyl-10-ribityl isoalloxazine]
- solubility thermodynamic at 1 h ([3]; ACD-A Anticoagulant, aqueous buffer, ACD-A Anticoagulant, absorbance at 373 nm, read-out: Concentration (373) of saturated solution): 63 µg/mL (≈ 167 µM)
- solubility thermodynamic at 1 h ([3]; ACD-A Anticoagulant, aqueous buffer, ACD-A Anticoagulant, absorbance at 447 nm, read-out: Concentration (447) of saturated solution): 60.3 µg/mL (≈ 160 µM)
- Concentration (373) of saturated solution ([3]; ACD-A Anticoagulant, absorbance at 373 nm): 166 µM
- Concentration (447) of saturated solution ([3]; ACD-A Anticoagulant, absorbance at 447 nm): 160 µM
- solubility thermodynamic at 1 h ([3]; Isolyte S media, pH 7.4, saline or isotonic, Isolyte S, pH 7.4 media, room temperature, absorbance at 373 nm, read-out: Concentration (373) of saturated solution): 42 µg/mL (≈ 112 µM)
- solubility thermodynamic at 1 h ([3]; Isolyte S media, pH 7.4, saline or isotonic, Isolyte S, pH 7.4 media, room temperature, absorbance at 447 nm, read-out: Concentration (447) of saturated solution): 40.9 µg/mL (≈ 109 µM)
- Concentration (373) of saturated solution ([3]; Isolyte S, pH 7.4 media, room temperature, absorbance at 373 nm): 110 µM
- Concentration (447) of saturated solution ([3]; Isolyte S, pH 7.4 media, room temperature, absorbance at 447 nm): 109 µM
- inactivation of HSV-II [4]: complete inactivation
- Log Inactivation (cfu/mL) ([1]; 10 μM in platelet concentrate): 1.9 Logs
- % of Initial, 373 nm ([5]; Irradiation Time 0): 100%
- % of Initial, 447 nm ([5]; Irradiation Time 0): 100%
- % of Initial, 373 nm ([5]; Irradiation Time 5): 87.3%
- % of Initial, 447 nm ([5]; Irradiation Time 5): 61.6%
- % of Initial, 373 nm ([5]; Irradiation Time 10): 90.5%
- % of Initial, 447 nm ([5]; Irradiation Time 10): 76.6%
- % of Initial, 373 nm ([5]; Irradiation Time 15): 100%
- % of Initial, 447 nm ([5]; Irradiation Time 15): 70%
- decomposition of the reagent (absorption profile at 373 nm) ([5]; over the entire irradiation period): no significant decomposition
- Log Inactivation (cfu/mL) ([2]; 10 μM in platelet concentrate): 4.1 Logs
- log virus titre ([6]; 30:70 PC:Media (PASIII), UV+VIS 0 J/cm^2, 0.0 Minutes): 5.6
- log virus titre ([6]; 30:70 PC:Media, UV+VIS 5 J/cm^2, 1.5 Minutes): 2.5
- log virus titre ([6]; 30:70 PC:Media, UV+VIS 10 J/cm^2, 3.0 Minutes): 2.5
- log virus titre ([6]; 30:70 PC:Media, UV+VIS 15 J/cm^2, 4.5 Minutes): 2.3
- log virus titre ([6]; 30:70 PC:Media, UV+VIS 20 J/cm^2, 6.0 Minutes): 1.8
- log virus titre ([6]; 30:70 PC:Media, UV+VIS 30 J/cm^2, 9.0 Minutes): 1.6
- log virus titre ([6]; 90:10 PC:Media, UV+VIS 0 J/cm^2): 5.6
- log virus titre ([6]; 90:10 PC:Media, UV+VIS 40 J/cm^2): 3.3

Structure (SMILES): Cc1cc(N)c2ccccc2c1O [K5, Vitamin K5]
- Log Inactivation (cfu/mL) ([7]; K5 300 μg/mL in Media (20:80 platelet concentrate:Isolyte S), UV 365 nm, 40 J/cm^2): 4.2 Logs
- Log Inactivation (cfu/mL) ([7]; K5 300 μg/mL in Media, Room Light): 0 Logs
- Log Inactivation (cfu/mL) ([7]; K5 300 μg/mL in Media, VIS 419 nm, 40 J/cm^2): 4.2 Logs
- Log Inactivation (cfu/mL) ([7]; K5 300 μg/mL in Plasma (platelet concentrate without additive solution), UV 365 nm, 40 J/cm^2): 0.1 Logs
- Log Inactivation (cfu/mL) ([7]; K5 300 μg/mL in Plasma, Room Light): 0 Logs
- Log Inactivation (cfu/mL) ([7]; K5 300 μg/mL in Plasma, VIS 419 nm, 40 J/cm^2): 0.1 Logs

Structure (SMILES): Cc1cc2nc3c(=O)[nH]c(=O)nc-3n(C[C@H](O)[C@H](O)[C@H](O)COP(=O)(O)O)c2cc1C [alloxazine mononucleotide]
- Log Inactivation (cfu/mL) ([1]; 10 μM in platelet concentrate): 1.6 Logs
- Log Inactivation (cfu/mL) ([2]; 10 μM in platelet concentrate): 5.6 Logs
